Reference: PMC10981527 (Bioorganic & medicinal chemistry letters, 2024)
Where two headings read alike, the source gives them in different places.

How the values were obtained:
[1] = observed only at high concentrations; cited from earlier work
[2] = test system: myeloma cells; conditions: cited from earlier work
[3] = test system: farnesyl diphosphate synthase (FDPS); conditions: in words; cited from earlier work
[4] = biological target: T1, geranylgeranyl diphosphate synthase (GGDPS) (Homo sapiens, UniProt O95749); conditions: read-out: GGDPS IC50; historical control; cited from earlier work
T1 sequence (O95749 1-300): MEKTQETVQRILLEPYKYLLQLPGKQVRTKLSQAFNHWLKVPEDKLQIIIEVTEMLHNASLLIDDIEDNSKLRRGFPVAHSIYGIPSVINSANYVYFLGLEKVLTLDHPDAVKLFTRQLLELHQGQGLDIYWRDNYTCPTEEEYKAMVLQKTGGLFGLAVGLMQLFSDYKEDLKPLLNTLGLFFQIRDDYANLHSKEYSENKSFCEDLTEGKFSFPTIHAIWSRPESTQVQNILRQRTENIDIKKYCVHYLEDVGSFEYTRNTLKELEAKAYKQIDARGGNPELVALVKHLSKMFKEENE

[5] = test system: RPMI-8226 cells; conditions: historical control; cited from earlier work
[6] = biological target: T1, geranylgeranyl diphosphate synthase (GGDPS); assay: Enzyme assay utilizing recombinant GGDPS; format: biochemical

CC(C)=CCC/C(C)=C/CC(C/C=C(\C)CCC=C(C)C)(P(=O)(O)O)P(=O)(O)O [Compound 3, digeranyl bisphosphonate]
Concentration at which cellular activity was observed [1]: ~ 10 μM

CC(C)=CCC/C(C)=C/CCn1cc(CC(P(=O)([O-])[O-])P(=O)([O-])[O-])nn1.[Na+].[Na+].[Na+].[Na+] [Compound 5]
Cellular activity, lowest concentration ([2]; myeloma cells, mixture of olefin isomers): 30 nM
Specificity for GGDPS over FDPS [3]: high specificity

CC(C)=CCC/C(C)=C\CCn1cc(CC(C)(P(=O)([O-])[O-])P(=O)([O-])[O-])nn1.[Na+].[Na+].[Na+].[Na+] [Compound 6]
IC50 [4]: 125 ± 27 nM
Cellular activity, lowest concentration [2]: 20 nM
Cellular LEC (lowest effective concentration) [5]: 0.02 µM

CC(C)=CCC/C(C)=C/CCn1cc(CC(C)(P(=O)([O-])[O-])P(=O)([O-])[O-])nn1.[Na+].[Na+].[Na+].[Na+] [Compound 7]
IC50 [4]: 86 ± 22 nM
Cellular activity, lowest concentration [2]: 25 nM

CC(C)=CCC/C(C)=C/Cn1cc(CC(N)(P(=O)(O)O)P(=O)(O)O)nn1 [Compound 18]
GGDPS inhibitory activity in enzyme assay [6]: no activity
